Laboratory results: US20240140986A1, “SYNTHETIC URSOLIC ACID DERIVATIVES AND METHODS OF USE THEREOF” (REATA PHARMACEUTICALS, INC., priority 2021, published 2024)
Read-outs that look alike come from different tables or passages of the source.

Tests used:
[1] = test system: Nrf2 / ARE-dependent luciferase in AREc32 reporter cell line; test: AREc32 luciferase reporter activation (Nrf2 induction); format: cell-based, human; conditions: for EC (2-fold): Homo sapiens, Arec32; for Relative Avg AREc32 EC2X Relative to RTA402 (fold): ratio to RTA402
How it was run: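 EC2X is the concentration raising luminescence 2-fold above DMSO-treated cells, from a nonlinear-regression dose–response fit. Compounds (0.03–1000 nM) were applied for nineteen hours, starting one day after seeding 20,000 reporter cells per well. Luciferase was read with One-Glo reagent.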

[2] = test system: IFNγ-induced NO production in RAW 264.7 cells; test: Nitric Oxide Suppression Assay (IFNγ-induced NO, Griess nitrite readout); format: cell-based, mouse; conditions: for IC50: Mus musculus; for Avg NO IC50 Relative to RTA402 (fold): Table 2, ratio to RTA402
How it was run: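 RAW 264.7 mouse macrophages in RPMI 1640 with 0.5% FBS were pretreated 2 h with compound (0.1% DMSO final), then stimulated with 20 ng/mL IFNγ for 24 h at 37° C. Supernatant nitrite was read by Griess absorbance at 525 nm against a nitrite standard curve, normalized to DMSO-IFNγ wells; IC50 from curve fit. Viability by WST-1.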

[3] = Table 2, concentration increasing luminescence 2-fold above vehicle, 19 h treatment, read-out: Avg AREc32 EC2X (nM) (Mean ± SD)
[4] = RAW264.7, Table 2, RAW 264.7 cells, 2 h pretreatment, 20 ng/mL interferon gamma 24 h, read-out: Avg NO IC50 (nM) (Mean ± SD)
[5] = Table 3, oleanolic acid derivative analogs, read-out: Avg ARE EC-2X
[6] = RAW264.7, Table 3, oleanolic acid derivative analogs, read-out: Avg NO IC50
[7] = Table 3, ursolic acid derivatives, read-out: Avg ARE EC-2X (nM) (Mean ± SD)
[8] = RAW264.7, Table 3, ursolic acid derivatives, read-out: Avg NO IC50 (nM) (Mean ± SD)

SMILES | IC50 [2, 4] | Avg NO IC50 Relative to RTA402 (fold) [2] | IC50 [2, 6] | IC50 [2, 8] | EC (2-fold) [1, 3] | Relative Avg AREc32 EC2X Relative to RTA402 (fold) ([1]; Table 2) | EC (2-fold) [1, 5] | EC (2-fold) [1, 7]
CNC(=O)CC[C@]12CC[C@@H](C)[C@H](C)[C@H]1[C@H]1C(=O)C=C3[C@@]4(C)C=C(C#N)C(=O)C(C)(C)[C@@H]4CC[C@@]3(C)[C@]1(C)CC2 [Compound T78] | 2.43 ± 0.95 nM | 0.683 ± 0.093 fold |  |  | 2.33 ± 0.78 nM | 0.194 ± 0.058 fold |  | 
COCCc1noc([C@]23CC[C@@H](C)[C@H](C)[C@H]2[C@H]2C(=O)C=C4[C@@]5(C)C=C(C#N)C(=O)C(C)(C)[C@@H]5CC[C@@]4(C)[C@]2(C)CC3)n1 [Compound T7] | 3.65 ± 1.87 nM | 1.62 ± 0.54 fold |  |  | 6.16 ± 0.7 nM | 0.595 ± 0.079 fold |  | 
CC1(C)CC[C@]2(CNC(=O)OC(C)(C)C)CC[C@]3(C)[C@H](C(=O)C=C4[C@@]5(C)C=C(C#N)C(=O)C(C)(C)[C@@H]5CC[C@]43C)[C@@H]2C1 [CC20, reference compound] |  |  | 5 nM |  |  |  | 21.1 nM | 
CONC(=O)[C@]12CC[C@@H](C)[C@H](C)[C@H]1[C@H]1C(=O)C=C3[C@@]4(C)C=C(C#N)C(=O)C(C)(C)[C@@H]4CC[C@@]3(C)[C@]1(C)CC2 [Compound T73] | 23.1 ± 6.6 nM | 7.02 ± 1.96 fold |  |  | 7.93 ± 0.82 nM | 0.681 ± 0.159 fold |  | 
C[C@@H]1[C@H]2[C@H]3C(=O)C=C4[C@@]5(C)C=C(C#N)C(=O)C(C)(C)[C@@H]5CC[C@@]4(C)[C@]3(C)CC[C@@]2(CC(N)=O)CC[C@H]1C [Compound T90] | 8.74 ± 2.77 nM | 4.60 ± 2.34 fold |  |  | 3.71 ± 0.99 nM | 0.455 ± 0.131 fold |  | 
C[C@@H]1[C@H]2[C@H]3C(=O)C=C4[C@@]5(C)C=C(C#N)C(=O)C(C)(C)[C@@H]5CC[C@@]4(C)[C@]3(C)CC[C@@]2(CNC(=O)OC(C)(C)C)CC[C@H]1C [Compound T20] | 12.9 ± 4.6 nM | 3.72 ± 0.60 fold |  | 12.9 ± 4.6 nM | 21.5 ± 4.6 nM | 1.83 ± 0.41 fold |  | 21.5 ± 4.6 nM
C[C@@H]1[C@H]2[C@H]3C(=O)C=C4[C@@]5(C)C=C(C#N)C(=O)C(C)(C)[C@@H]5CC[C@@]4(C)[C@]3(C)CC[C@@]2(CN(C)C(=O)C(C)(F)F)CC[C@H]1C [Compound T38] | 39.2 ± 4.2 nM | 9.52 ± 1.82 fold |  |  | 34.5 ± 7.6 nM | 2.76 ± 0.32 fold |  | 
C[C@@H]1[C@H]2[C@H]3C(=O)C=C4[C@@]5(C)C=C(C#N)C(=O)C(C)(C)[C@@H]5CC[C@@]4(C)[C@]3(C)CC[C@@]2(CC(=O)O)CC[C@H]1C [Compound T89] | 14.6 ± 2.2 nM | 8.03 ± 3.23 fold |  |  | 3.62 ± 1.73 nM | 0.345 ± 0.161 fold |  | 
C[C@@H]1[C@H]2[C@H]3C(=O)C=C4[C@@]5(C)C=C(C#N)C(=O)C(C)(C)[C@@H]5CC[C@@]4(C)[C@]3(C)CC[C@@]2(CN)CC[C@H]1C [Compound T21] | 26 ± 7.6 nM | 10.9 ± 1.6 fold |  | 26 ± 7.6 nM | 14.7 ± 1.3 nM | 1.27 ± 0.045 fold |  | 14.7 ± 1.3 nM
CC1(C)CC[C@]2(c3nc(CO)no3)CC[C@]3(C)[C@H](C(=O)C=C4[C@@]5(C)C=C(C#N)C(=O)C(C)(C)[C@@H]5CC[C@]43C)[C@@H]2C1 [CC10, reference compound] |  |  | 2.1 nM |  |  |  | 3.39 nM | 
C[C@@H]1[C@H]2[C@H]3C(=O)C=C4[C@@]5(C)C=C(C#N)C(=O)C(C)(C)[C@@H]5CC[C@@]4(C)[C@]3(C)CC[C@@]2(C(=O)N2CCCC2)CC[C@H]1C [Compound T71] | 19.7 ± 1.8 nM | 13 ± 2.7 fold |  |  | 29.3 ± 8.1 nM | 2.95 ± 0.14 fold |  | 
COC(=O)C[C@]12CC[C@@H](C)[C@H](C)[C@H]1[C@H]1C(=O)C=C3[C@@]4(C)C=C(C#N)C(=O)C(C)(C)[C@@H]4CC[C@@]3(C)[C@]1(C)CC2 [Compound T88] | 12.9 ± 5.1 nM | 6.48 ± 0.96 fold |  |  | 10.7 ± 3.2 nM | 1.03 ± 0.33 fold |  | 

Second part, led by results:

IC50 [2, 4] | Avg NO IC50 Relative to RTA402 (fold) [2] | IC50 [2, 6] | IC50 [2, 8] | SMILES | EC (2-fold) [1, 3] | Relative Avg AREc32 EC2X Relative to RTA402 (fold) ([1]; Table 2) | EC (2-fold) [1, 5] | EC (2-fold) [1, 7]
 |  | 3.2 nM |  | CC1(C)CC[C@]2(n3ccnc3)CC[C@]3(C)[C@H](C(=O)C=C4[C@@]5(C)C=C(C#N)C(=O)C(C)(C)[C@@H]5CC[C@]43C)[C@@H]2C1 [CC62, reference compound] |  |  | 26.8 nM | 
 |  | 3.5 nM |  | CC1(C)CC[C@]2(N)CC[C@]3(C)[C@H](C(=O)C=C4[C@@]5(C)C=C(C#N)C(=O)C(C)(C)[C@@H]5CC[C@]43C)[C@@H]2C1 [CC16, reference compound] |  |  | 27.7 nM | 
 |  | 3.3 nM |  | CN(C)Cc1noc([C@]23CCC(C)(C)C[C@H]2[C@H]2C(=O)C=C4[C@@]5(C)C=C(C#N)C(=O)C(C)(C)[C@@H]5CC[C@@]4(C)[C@]2(C)CC3)n1 [CC8, reference compound] |  |  | 3.72 nM | 
